≈ marks a conversion by molar mass, not a printed value.
Assays:
Type in all cases: functional
[1] = test system: Candida albicans; test: Antifungal activity against Candida albicans ATCC 44859 after 24 hrs by broth microdilution assay; conditions: Candida albicans, ATCC 44859, 24 h
[2] = test system: Candida albicans; test: Antifungal activity against Candida albicans ATCC 44859 after 48 hrs by broth microdilution assay; conditions: Candida albicans, ATCC 44859, 48 h
[3] = test system: Candida tropicalis; test: Antifungal activity against Candida tropicalis 159 after 24 hrs by broth microdilution assay; conditions: Candida tropicalis, 159, 24 h
[4] = test system: Candida tropicalis; test: Antifungal activity against Candida tropicalis 159 after 48 hrs by broth microdilution assay; conditions: Candida tropicalis, 159, 48 h
[5] = test system: Pichia kudriavzevii; test: Antifungal activity against Candida krusei E28 after 24 hrs by broth microdilution assay; conditions: Pichia kudriavzevii, E28, 24 h
[6] = test system: Pichia kudriavzevii; test: Antifungal activity against Candida krusei E28 after 48 hrs by broth microdilution assay; conditions: Pichia kudriavzevii, E28, 48 h
[7] = test system: Nakaseomyces glabratus; test: Antifungal activity against Candida glabrata 20/I after 24 hrs by broth microdilution assay; conditions: Nakaseomyces glabratus, 20/I, 24 h
[8] = test system: Nakaseomyces glabratus; test: Antifungal activity against Candida glabrata 20/I after 48 hrs by broth microdilution assay; conditions: Nakaseomyces glabratus, 20/I, 48 h
[9] = test system: Trichosporon asahii; test: Antifungal activity against Trichosporon asahii 1188 after 24 hrs by broth microdilution assay; conditions: Trichosporon asahii, 1188, 24 h
[10] = test system: Trichosporon asahii; test: Antifungal activity against Trichosporon asahii 1188 after 48 hrs by broth microdilution assay; conditions: Trichosporon asahii, 1188, 48 h
[11] = test system: Aspergillus fumigatus; test: Antifungal activity against Aspergillus fumigatus 231 after 24 hrs by broth microdilution assay; conditions: Aspergillus fumigatus, 231, 24 h
[12] = test system: Aspergillus fumigatus; test: Antifungal activity against Aspergillus fumigatus 231 after 48 hrs by broth microdilution assay; conditions: Aspergillus fumigatus, 231, 48 h
[13] = test system: Lichtheimia corymbifera; test: Antifungal activity against Absidia corymbifera 272 after 24 hrs by broth microdilution assay; conditions: Lichtheimia corymbifera, 272, 24 h
[14] = test system: Lichtheimia corymbifera; test: Antifungal activity against Absidia corymbifera 272 after 48 hrs by broth microdilution assay; conditions: Lichtheimia corymbifera, 272, 48 h
[15] = test system: Trichophyton mentagrophytes; test: Antifungal activity against Trichophyton mentagrophytes 445 after 72 hrs by broth microdilution assay; conditions: Trichophyton mentagrophytes, 445, 72 h
[16] = test system: Trichophyton mentagrophytes; test: Antifungal activity against Trichophyton mentagrophytes 445 after 120 hrs by broth microdilution assay; conditions: Trichophyton mentagrophytes, 445, 120 h

SMILES | MIC [1] [µM] | MIC [2] [µM] | MIC [3] [µM] | MIC [4] [µM] | MIC [5] [µM] | MIC [6] [µM] | MIC [7] [µM] | MIC [8] [µM] | MIC [9] [µM] | MIC [10] [µM] | MIC [11] [µM] | MIC [12] [µM] | MIC [13] [µM] | MIC [14] [µM] | MIC [15] [µM] | MIC [16] [µM]
COc1ccc(C(=S)NCc2cccc(Cl)c2)c(O)c1 | 125 (≈ 38.5 µg/mL) | 250 (≈ 77 µg/mL) | 125 (≈ 38.5 µg/mL) | 250 (≈ 77 µg/mL) | 125 (≈ 38.5 µg/mL) | 125 (≈ 38.5 µg/mL) | 250 (≈ 77 µg/mL) | 500 (≈ 154 µg/mL) | 31.2 (≈ 9.62 µg/mL) | 62.5 (≈ 19.2 µg/mL) | 62.5 (≈ 19.2 µg/mL) | 125 (≈ 38.5 µg/mL) | 7.81 (≈ 2.4 µg/mL) | 7.81 (≈ 2.4 µg/mL) | 15.6 (≈ 4.81 µg/mL) | 15.6 (≈ 4.81 µg/mL)
Cc1ccc(CNC(=S)c2cc([N+](=O)[O-])ccc2O)cc1 | 500 (≈ 151 µg/mL) | > 500 | > 500 | > 500 | > 500 | > 500 | > 500 | > 500 | 500 (≈ 151 µg/mL) | 500 (≈ 151 µg/mL) | 500 (≈ 151 µg/mL) | 500 (≈ 151 µg/mL) | 500 (≈ 151 µg/mL) | 500 (≈ 151 µg/mL) | 62.5 (≈ 18.9 µg/mL) | 62.5 (≈ 18.9 µg/mL)
Cc1cccc(C(=S)NCc2ccc(Cl)cc2)c1O | 62.5 (≈ 18.2 µg/mL) | 125 (≈ 36.5 µg/mL) | 125 (≈ 36.5 µg/mL) | 250 (≈ 73 µg/mL) | > 500 | > 500 | > 500 | > 500 | 62.5 (≈ 18.2 µg/mL) | 62.5 (≈ 18.2 µg/mL) | 62.5 (≈ 18.2 µg/mL) | 125 (≈ 36.5 µg/mL) | 31.2 (≈ 9.12 µg/mL) | 31.2 (≈ 9.12 µg/mL) | 15.6 (≈ 4.56 µg/mL) | 15.6 (≈ 4.56 µg/mL)
Oc1ccccc1C(=S)NCc1cccc(Cl)c1 | 125 (≈ 34.7 µg/mL) | 125 (≈ 34.7 µg/mL) | 125 (≈ 34.7 µg/mL) | 125 (≈ 34.7 µg/mL) | 62.5 (≈ 17.4 µg/mL) | 125 (≈ 34.7 µg/mL) | 125 (≈ 34.7 µg/mL) | 250 (≈ 69.4 µg/mL) | 31.2 (≈ 8.68 µg/mL) | 31.2 (≈ 8.68 µg/mL) | 62.5 (≈ 17.4 µg/mL) | 62.5 (≈ 17.4 µg/mL) | 31.2 (≈ 8.68 µg/mL) | 31.2 (≈ 8.68 µg/mL) | 7.81 (≈ 2.17 µg/mL) | 15.6 (≈ 4.34 µg/mL)
Cc1ccc(C(=S)NCc2ccc(Cl)cc2)c(O)c1 | > 500 | > 500 | > 500 | > 500 | > 500 | > 500 | > 500 | > 500 | > 500 | > 500 | > 500 | > 500 | > 500 | > 500 | > 500 | > 500
Cc1ccc(C(=S)NCc2ccc(C(C)(C)C)cc2)c(O)c1 | > 500 | > 500 | > 500 | > 500 | > 500 | > 500 | > 500 | > 500 | > 500 | > 500 | > 500 | > 500 | > 500 | > 500 | > 500 | > 500
OC(Cn1cncn1)(Cn1cncn1)c1ccc(F)cc1F [FLUCONAZOLE] | 1 (≈ 0.306 µg/mL) | 2 (≈ 0.613 µg/mL) | 3 (≈ 0.919 µg/mL) | 5 (≈ 1.53 µg/mL) | > 50 | > 50 | 22 (≈ 6.74 µg/mL) | > 50 | 4 (≈ 1.23 µg/mL) | 9 (≈ 2.76 µg/mL) | > 50 | > 50 | > 50 | > 50 | 17 (≈ 5.21 µg/mL) | 26 (≈ 7.96 µg/mL)
